13 compounds from US20140349989A1, “COMPOUNDS AND THERAPEUTIC USES THEREOF” (Alzheimer's Institute of America, priority 2011, published 2014) can be followed below.

The nature of one data set: Cytotoxicity Assay (HCT116, CellTiter-Glo). In kind it is cell-based. To be noted: human, HCT116 cell cytotoxicity IC50. The procedure:
HCT116 cells were seeded in 96 well plates (Greiner Bio-One, Monroe, N.C.) and allowed to settle overnight. Test compound dissolved in dimethyl sulfoxide (DMSO) was added and drug incubation proceeded for 72 hours. When applicable, a 1000× solution of nicotinic acid (NA; Sigma-Aldrich, St. Louis, Mo.) dissolved in water was generated, and 1×NA (10 μM final concentration) was added at the same time as the test compound. After 72 hour, 50 μL of CellTiter-Glo Luminescent Cell Viability Assay reagent (Promega Corporation, Madison, Wis.) was added to cells in 200 μL of cellular media. After a proscribed incubation period, luminescence was measured using a TopCount NXT plate reader (PerkinElmer, Waltham, Mass.).
On the technique in general: In ATP-based viability assays light output follows the ATP content of the culture.
Usually IC50 stands for the concentration that gives 50% inhibition. `O=C(NCc1cccnc1)Nc1ccc(-n2cc(CCN3CCCCC3)c3ccccc32)cc1` [Compound 49, 1-(4-{3-[2-(Piperidin-1-yl)ethyl]-1H-indol-1-yl}phenyl)-3-(pyridin-3-ylmethyl)urea] had an IC50 at 72 h of under 100 nM.

In turn, `O=C(NCc1cccnc1)Nc1ccc(N2CC3(CCNCC3)c3ccccc32)cc1` [Compound 80, 1-(Pyridin-3-ylmethyl)-3-[4-(spiro[indole-3,4′-piperidin]-1(2H)-yl)phenyl]urea] registered an IC50 at 72 h of under 100 nM.

On to `O=C(NCc1cccnc1)Nc1ccc(-n2cc(C3CCN(CCO)CC3)c3ccccc32)cc1` [Compound 129, 1-(4-{3-[1-(2-Hydroxy-ethyl)piperidin-4-yl]-1H-indol-1-yl}phenyl)-3-(pyridin-3-ylmethyl)urea], for which the IC50 at 72 h is at least 100 nM.

`CC(C)(C)OC(=O)N1CCC(n2cc(CCCCCCNC(=O)NCc3cccnc3)c3ccccc32)CC1` [Compound 123, tert-Butyl 4-[3-(6-{[(pyridin-3-ylmethyl)carbamoyl]amino}hexyl)-1H-indol-1-yl]piperidine-1-carboxylate]: the IC50 at 72 h was at least 100 nM.

With `CC(C)(C)OC(=O)N1CC(N2CC(CCCCCCNC(=O)NCc3cccnc3)c3ccccc32)C1` (stereo not shown) [Compound 121, tert-Butyl 3-[3-(6-{[(pyridin-3-yl-methyl)carbamoyl]amino}hexyl)-2,3-dihydro-1H-indol-1-yl]azetidine-1-carboxylate], the IC50 at 72 h was under 100 nM.

The data set is the same for the next values; noted with them: human, HCT116 cells, 72 hours drug incubation, CellTiter-Glo luminescence; read-out: HCT116 cell cytotoxicity IC50.
Consider `CC(=O)N1CCC(n2cc(C(=O)CCCCNC(=O)NCc3cccnc3)c3ccccc32)CC1` [Compound 58, 1-{5-[1-(1-Acetylpiperidin-4-yl)-1H-indol-3-yl]-5-oxo-pentyl}-3-(pyridin-3-ylmethyl)urea], for which the IC50 at 72 h was at least 100 nM.

As to `O=C(/C=C/c1ccc(-n2cc(CCN3CCCCC3)c3ccccc32)cc1)NCc1cccnc1` [Compound 182, (2E)-3-(4-{3-[2-(Piperidin-1-yl)ethyl]-1H-indol-1-yl}phenyl)-N-(pyridin-3-ylmethyl)prop-2-enamide], the IC50 at 72 h is under 100 nM.

For `O=C(CCc1ccc(-n2cc(CCN3CCOCC3)c3ccccc32)cc1)NCc1cccnc1` [Compound 180, 3-(4-{3-[2-(Morpholin-4-yl)ethyl]-1H-indol-1-yl}phenyl)-N-(pyridin-3-ylmethyl)propanamide], the IC50 at 72 h is under 100 nM.

For `O=C(NCc1cccnc1)Nc1ccc(-n2c(Cl)c(C(=O)N3CCN(C4CCCCC4)CC3)c3ccccc32)cc1` [Compound 70, 1-(4-{2-Chloro-3-[(4-cyclohexyl-piperazin-1-yl)carbonyl]-1H-indol-1-yl}phenyl)-3-(pyridin-3-ylmethyl)urea], the IC50 at 72 h was under 100 nM.

Take `COc1cccc(-c2cn(-c3ccc(NC(=O)NCc4cccnc4)cc3)nc2C(=O)N2CCC(N3CCCCC3)CC2)c1` [Compound 85, 1-{4-[3-(1,4′-Bipiperidin-1′-ylcarbonyl)-4-(3-methoxyphenyl)-1H-pyrazol-1-yl]phenyl}-3-(pyridin-3-ylmethyl)urea]: the IC50 at 72 h is under 100 nM.

For `O=C(NCc1cccnc1)Nc1ccc(-n2nc(N3CCNCC3)c3ccccc32)cc1` [Compound 98, 1-{4-[3-(Piperazin-1-yl)-1H-indazol-1-yl]phenyl}-3-(pyridin-3-ylmethyl)urea], the IC50 at 72 h is under 100 nM.

Regarding `CCN1CCN(C(=O)c2cn(-c3ccc(NC(=O)NCc4cccnc4)cc3Cl)c3ccccc23)CC1` [Compound 95, 1-(3-Chloro-4-{3-[(4-ethylpiperazin-1-yl)carbonyl]-1H-indol-1-yl}phenyl)-3-(pyridin-3-ylmethyl)urea], the 50% inhibitory concentration (IC50) at 72 h is under 100 nM.

For `C[C@@H]1CN(CCc2cn(-c3ccc(NC(=O)NCc4cccnc4)cc3)c3ccccc23)C[C@H](C)O1` [Compound 53, 1-[4-(3-{2-[(2R,6S)-2,6-Dimethyl-morpholin-4-yl]ethyl}-1H-indol-1-yl)phenyl]-3-(pyridin-3-ylmethyl)urea], the 50% inhibitory concentration (IC50) at 72 h is under 100 nM.
